# Measurements: patent US20260374739A1, “SMALL MOLECULAR WEIGHT CHEMICAL COMPOUND TO ANTAGONIZE EPH-EPHRIN TETRAMERIZATION AND INHIBIT BIDIRECTIONAL SIGNALING” (THE BOARD OF REGENTS OF THE UNIVERSITY OF TEXAS SYSTEM, priority 2022, published 2026)
# Where “and” joins values, the source holds several entries; their conditions need not be identical. Equal values may be shown once. Read-outs that look alike come from different tables or passages of the source.
# Tests used:
# [1] = molecular target: T1, EphrinB2-EphB2 (Homo sapiens, UniProt P29323); test: Octet tetramerization inhibition, immobilized human EphrinB2 binding to 50 nM soluble human EphB2
# T1 construct: soluble human EphB1-His, EphB2-His, and EphB4-His ectodomains; commercially available human EphrinB1-Fc (EB1), EphrinB2-Fc (EB2), and EphrinB3-Fc (EB3) ectodomain proteins; purchased
# T1 sequence (P29323 19-543 limits assumed): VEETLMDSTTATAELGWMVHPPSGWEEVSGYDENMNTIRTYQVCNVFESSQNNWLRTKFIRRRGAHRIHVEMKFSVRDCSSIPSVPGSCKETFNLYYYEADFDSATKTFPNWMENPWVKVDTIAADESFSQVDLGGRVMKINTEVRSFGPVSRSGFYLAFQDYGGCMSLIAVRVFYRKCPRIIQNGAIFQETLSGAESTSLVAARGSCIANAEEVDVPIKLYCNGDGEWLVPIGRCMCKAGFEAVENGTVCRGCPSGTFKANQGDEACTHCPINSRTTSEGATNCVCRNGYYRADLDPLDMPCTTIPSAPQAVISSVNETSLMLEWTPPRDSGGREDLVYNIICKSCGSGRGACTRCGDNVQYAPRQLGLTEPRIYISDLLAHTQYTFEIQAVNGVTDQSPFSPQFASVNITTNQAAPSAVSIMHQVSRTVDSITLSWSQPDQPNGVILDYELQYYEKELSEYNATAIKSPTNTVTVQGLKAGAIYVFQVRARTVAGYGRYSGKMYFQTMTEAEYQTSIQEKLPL
# [2] = molecular target: T2, EphrinB2-EphB1 (Homo sapiens, UniProt P54762); test: Octet 80 sec association/500 sec dissociation, immobilized human EphrinB2-Fc binding to soluble human EphB1-His; settings: for % Inhibition: Association + Dissociation (160 sec) / inhibition at 3.2 µM: 25 nM EphB1, 3.2 μM compound, A20-I as max control, 0* = less than 0, no inhibition
# T2 construct: soluble human EphB1-His, EphB2-His, and EphB4-His ectodomains; commercially available human EphrinB1-Fc (EB1), EphrinB2-Fc (EB2), and EphrinB3-Fc (EB3) ectodomain proteins; purchased
# T2 sequence (P54762 18-540 limits assumed): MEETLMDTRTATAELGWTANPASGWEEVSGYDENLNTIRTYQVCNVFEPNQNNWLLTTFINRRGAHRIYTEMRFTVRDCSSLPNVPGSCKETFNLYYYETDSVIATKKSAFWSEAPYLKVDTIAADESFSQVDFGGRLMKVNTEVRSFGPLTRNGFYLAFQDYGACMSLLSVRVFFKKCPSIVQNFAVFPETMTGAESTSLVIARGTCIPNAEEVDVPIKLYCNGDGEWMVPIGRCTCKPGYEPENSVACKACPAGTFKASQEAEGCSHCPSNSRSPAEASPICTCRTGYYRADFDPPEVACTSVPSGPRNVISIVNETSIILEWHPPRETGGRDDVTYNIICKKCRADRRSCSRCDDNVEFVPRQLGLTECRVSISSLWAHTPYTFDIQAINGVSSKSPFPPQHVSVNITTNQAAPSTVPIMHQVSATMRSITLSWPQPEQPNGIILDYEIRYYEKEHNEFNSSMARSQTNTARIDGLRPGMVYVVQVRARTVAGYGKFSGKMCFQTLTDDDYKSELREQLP
# Method in brief: (§1)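 EphrinB2-Fc captured on AHC biosensors, then soluble His-tagged EphB ectodomain (25 nM for % inhibition runs) associated 80 s and dissociated 500 s in PBS, 0.05% Tween-20, 1% DMSO ± compound. Compounds tested at 0.1–3.2 μM with a 10 μM max standard; IC50 from AUC of full traces or at 75 s and 135 s.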
# [3] = molecular target: T1, EphrinB2-EphB2; test: Octet 80 sec association/500 sec dissociation, immobilized human EphrinB2-Fc binding to soluble human EphB2-His
# Method in brief: as §1
# [4] = Absolute AUC/IC50, Table A, EphrinB2-EphB2
# [5] = Absolute Association IC50 (300 sec), Table A, EphrinB2-EphB2
# [6] = Absolute Dissociation IC50 (450 sec), Table A, EphrinB2-EphB2
# [7] = Relative AUC/IC50, Table A, EphrinB2-EphB2, compound 7: association only
# [8] = Relative Association IC50 (300 sec), Table A, EphrinB2-EphB2
# [9] = Relative Dissociation IC50 (450 sec), Table A, EphrinB2-EphB2
# [10] = tetramerization inhibitor IC50 (relative), association step, surmountable tetramer
# [11] = EphB1, read-out: % Inhibition: Association + Dissociation (160 sec)
# [12] = EphB1, read-out: % Inhibition: Association ONLY (80 sec)
# [13] = EphB2, 25 nM EphB2, 3.2 μM compound, A20-I as max control, 0* = less than 0, no inhibition, read-out: % Inhibition: Association + Dissociation (160 sec)
# [14] = EphB2, 25 nM EphB2, 3.2 μM compound, A20-I as max control, 0* = less than 0, no inhibition, read-out: % Inhibition: Association ONLY (80 sec)
# [15] = EphB2, 25 nM EphB2, 3.2 μM compound, A20-I as max control, 0* = less than 0, no inhibition
compound,measurement,setting,value
"O=[N+]([O-])c1cc(CN2CCOCC2)c2cccnc2c1O [Compound 9, 5-(morpholinomethyl)-7-nitroquinolin-8-ol]",tetramerization inhibitor activity,[1],"weak, essentially inactive"
same,IC50,[1]; [4],> 3.2 µM
same,IC50,[1]; [5],> 3.2 µM
same,IC50,[1]; [6],> 3.2 µM
same,IC50,[1]; [7],> 3.2 µM
same,IC50,[1]; [8],> 3.2 µM
same,IC50,[1]; [9],> 3.2 µM
same,IC50,[1]; [10],> 3 µM
same,% Inhibition: Association + Dissociation (160 sec),"[2]; EphB1, listed as A19-NO2 (A)",36.9% and 29.8%
same,inhibition of EphB1-EphrinB2 binding,"[2]; association step, general",25%
same,"EphB1 Inhibition Percent, Inhibition of Association ONLY","[2]; at 3.2 μM and 80 seconds, immobilized human EphrinB2, 25 nM soluble human EphB1",22.5% and 16.1% and 15.7%
same,"EphB1 Inhibition Percent, Inhibition of Association-Dissociation","[2]; at 3.2 μM and 580 seconds, immobilized human EphrinB2, 25 nM soluble human EphB1",36.9% and 29.8% and 22.8%
same,% Inhibition: Association + Dissociation (160 sec),"[3]; EphB2, 25 nM EphB2, 3.2 μM compound, A20-I as max control, 0* = less than 0, no inhibition, listed as A19-NO2 (A)",58.0% and 38.9%
same,inhibition of EphB2-EphrinB2 binding,"[3]; association step, general",40%
same,"EphB2 Inhibition Percent, Inhibition of Association-Dissociation","[3]; at 3.2 μM and 580 seconds, immobilized human EphrinB2, 25 nM soluble human EphB2",58.0% (2×) and 38.9%
"Oc1c(Cl)cc(CN2CCOCC2)c2cccnc12 [Compound 3, 7-chloro-5-(morpholinomethyl)quinolin-8-ol]",IC50,[1]; [4],2.4 µM
same,IC50,[1]; [5],2.34 µM
same,IC50,[1]; [6],1.7 µM
same,IC50,[1]; [8],1.12 µM
same,IC50,[1]; [9],1.05 µM
same,IC50,[1]; [10],~0.5 µM
same,inhibition at 3.2 µM,[2]; [11],48.4%
same,inhibition at 3.2 µM,[2]; [12],34.2%
same,inhibition of EphrinB2-EphB interactions,"[3]; 3.2 μM, EphB1, EphB2 and EphB4",activity similar to A20-I max control
same,inhibition at 3.2 µM,[3]; [13],78.1%
same,inhibition at 3.2 µM,[3]; [14],64.1%
"Oc1c(I)cc(CN2CCOCC2)c2cccnc12 [Compound 7, 7-iodo-5-(morpholinomethyl)quinolin-8-ol]",tetramerization inhibitor activity,[1],stronger tetramerization inhibitor compared to A20
same,IC50,[1]; [4],> 1.6 µM
same,IC50,[1]; [5],1.5 µM
same,IC50,[1]; [6],> 1.6 µM
same,IC50,[1]; [7],0.44 µM
same,IC50,[1]; [8],0.89 µM
same,IC50,[1]; [9],1.07 µM
same,IC50,[1]; [10],~0.6 µM
same,"% Inhibited (AUC), Association + Dissociation","[2]; EphB1, 0-160 sec, 50 nM, 10 μM compound, Table 4",38.4%
same,% Inhibition: Association + Dissociation (160 sec),[2]; EphB1,53.1% and 44.3% and 52.4%
same,inhibition at 3.2 µM,[2]; [11],46.8%
same,inhibition at 3.2 µM,[2]; [12],29.5%
same,"% Inhibited (AUC), Association","[2]; EphB1, 50 nM, 10 μM compound, Table 4",25.0%
same,inhibition,"[2]; EphB1, 10 μM 2×HCl salt, read-out: % Inhibited (AUC), Association",36.6%
same,IC50,"[2]; EphB1, Association (75″), read-out: Absolute IC50",> 3.2 µM
same,IC50,"[2]; EphB1, Association (75″), read-out: Relative IC50",0.85 µM
same,IC50,"[2]; EphB1, Association (AUC), read-out: Absolute IC50",> 3.2 µM
same,IC50,"[2]; EphB1, Association (AUC), read-out: Relative IC50",0.98 µM
same,IC50,"[2]; EphB1, Dissociation (135″), read-out: Absolute IC50",0.85 µM
same,IC50,"[2]; EphB1, Dissociation (135″), read-out: Relative IC50",0.44 µM
same,IC50,"[2]; EphB1, Full AUC, read-out: Absolute IC50",1.48 µM
same,IC50,"[2]; EphB1, Full AUC, read-out: Relative IC50",0.24 µM
same,inhibition,"[2]; EphB1, first 160 sec, 10 μM 2×HCl salt, read-out: % Inhibited (AUC), Association + Dissociation",48.5%
same,inhibition,"[2]; EphB1, highest dose, typically 3.2 μM, read-out: Association (% Inhibited (AUC))",32.6%
same,inhibition,"[2]; EphB1, highest dose, typically 3.2 μM, read-out: Association + Dissociation (% Inhibited (AUC))",49.4%
same,% Inhibition: Association + Dissociation (160 sec),[3]; [15],80.6% and 77.6% and 74.3%
same,% Inhibition: Association ONLY (80 sec),[3]; [15],66.1% and 61.2% and 56.7%
same,inhibition at 3.2 µM,[3]; [13],75.3%
same,inhibition at 3.2 µM,[3]; [14],59.6%
same,inhibition,"[3]; EphB2, 10 μM 2×HCl salt, read-out: % Inhibited (AUC), Association",61.8%
same,IC50,"[3]; EphB2, Association (75″), read-out: Absolute IC50",1.66 µM
same,IC50,"[3]; EphB2, Association (75″), read-out: Relative IC50",1.2 µM
same,IC50,"[3]; EphB2, Association (AUC), read-out: Absolute IC50",2.24 µM
same,IC50,"[3]; EphB2, Association (AUC), read-out: Relative IC50",1.15 µM
same,IC50,"[3]; EphB2, Dissociation (135″), read-out: Absolute IC50",0.41 µM
same,IC50,"[3]; EphB2, Dissociation (135″), read-out: Relative IC50",0.34 µM
same,IC50,"[3]; EphB2, Full AUC, read-out: Absolute IC50",0.24 µM
same,IC50,"[3]; EphB2, Full AUC, read-out: Relative IC50",0.19 µM
same,inhibition,"[3]; EphB2, first 160 sec, 10 μM 2×HCl salt, read-out: % Inhibited (AUC), Association + Dissociation",76.5%
same,inhibition,"[3]; EphB2, highest dose, typically 3.2 μM, read-out: Association (% Inhibited (AUC))",56.4%
same,inhibition,"[3]; EphB2, highest dose, typically 3.2 μM, read-out: Association + Dissociation (% Inhibited (AUC))",74.7%
